Values quoted from earlier work in EP0959130A1, “Cloning and expression of a new glucoamylase gene from endomyces fibuliger” (SOCIETE DES PRODUITS NESTLE S.A., priority 1998, dated 1999).

Experiments:
[1] = tested on: Glucoamylase I from E.fibuliger IFO 0111; conditions: purified Glucoamylase I; from Futatsugi et al., 1993; read-out: Km for maltose
[2] = tested on: Glucoamylase II from E.fibuliger IFO 0111; conditions: purified Glucoamylase II; from Futatsugi et al., 1993; read-out: Km for maltose

Km [1]: 8.3 mM
Km [2]: 2.6 mM
SMILES: OC[C@H]1O[C@H](O[C@H]2[C@H](O)[C@@H](O)C(O)O[C@@H]2CO)[C@H](O)[C@@H](O)[C@@H]1O (mixture of isomers) [maltose]
